# Patent publication EP0752872B1, “NADH OXIDASE AS A TARGET IN DIAGNOSIS AND THERAPY” (Morré, D. James, priority 1994, dated 1995)
# Read-outs that look alike come from different tables or passages of the source.
# Assays:
# [1] = system: Protein disulfide-thiol interchange activity of HeLa plasma membrane; experiment: Protein disulfide-thiol interchange (RNAse activity with cCMP as substrate); type: biochemical, human
# Protocol: Estimation of protein disulfide isomerase- (PDI) like activity. Two methods were employed to determine PDI or PDI-like activity.
# In the first method, ribonuclease A activity was measured using a spectrophotometric assay based on cCMP as RNAse substrate. Scrambled RNAse ([…]) was incubated together with 0.45 mM cCMP in 50 Mm Tris-MES buffer, pH 6.5, at 30°C in a final volume of 3 ml. […] A variation of this assay was to preincubate scrambled RNAse with transitional endoplasmic reticulum for 20 min in the presence or absence of 1 µM all-trans retinol (using ethanol as control) and in the presence or absence of 1 µM reduced or oxidized glutathione or a mixture of both. After this 20 min of "reactivation" of RNAse, cCMP was added to a final concentration of 0.45 mM to initiate the reaction. The increase of the absorbance at 296 nm was recorded over 25 min and the concentrations of cCMP were determined (E = 0.19 mM^-1cm^-1). Spectrophotometric measurements were with a Hitachi U3210 spectrophotometer with a thermostatic cell compartment maintained at 30°C with continuous stirring.
# Preparation of scrambled RNAse substrate. To prepare the oxidized, denatured RNAse substrate (scrambled RNAse), native RNAse A (Sigma, Type 1-AS from bovine pancreas) (30 µg/ml) was incubated 1 h at 35°C in 50 mM Tris-acetate, pH 8.6, containing 9 M urea and 130 mM DTT.
# Protein concentration was estimated from spectrophotometric measurement at 280 nm using native RNAse A as standard. For preparation of scrambled RNAse, the reduced RNAse was diluted to 0.5 mg/ml with 0.1 M acetic acid. Solid urea was then added to a final concentration of 10 M after which 0.1 M sarcosine hydrochloride was added and the pH adjusted to 8.5 with 1 M Tris. The mixture then was incubated in the dark for 2-3 days during which time the protein was randomly oxidized. The scrambled product was recovered by acidification to pH 4 with glacial acetic acid and elution from Sephadex G-25 in 0.1 M acetic acid. Fractions containing protein were pooled, adjusted to pH 8 and stored at 4°C.
# HeLa cells = experiment: Growth of HeLa cells in culture; type: cell-based, human; settings: Homo sapiens, HeLa, 72 h
# Protocol: Growth of cells. HeLa cells (ATCC CCL2), were grown in 150 cm^2 flasks in Minimal Essential Medium (Gibco), pH 7.4. at 37°C with 10% bovine calf serum (heat-inactivated), plus 50 mg/l gentamycin sulfate (Sigma). Cells were trypsinized with Sigma IX trypsin for 1 to 2 min, harvested by scraping and taken up in TD-tris buffer (140 mM NaCl, 5 mM KCl, 0.7 mM Na2HPO4 and 25 mM Tris, pH 7.4) to a final cell concentration of 0.1 g wet weight (gww) per ml.
# The number of cells initially plated was subtracted. The results were averages from duplicate experiments.
# [2] = system: NADH oxidase activity of isolated plasma membranes of normal rat kidney cells; experiment: NADH oxidase assay, plasma membranes of normal rat kidney cells
smiles,measurement,setting,value
COc1cc(CNC(=O)CCCC/C=C/C(C)C)ccc1O [capsaicin],Protein disulfide-thiol interchange activity,[1],.95 nmoles/min/mg protein
same,IC50,HeLa cells; read-out: concentration at which growth was 50% inhibited,~1000 nM
same,IC50,HeLa cells; read-out: concentration of drug able to inhibit growth by 50%,> 10000 nM
same,concentration at which NADH oxidase activity is inhibited,[2],> 10^-5 M
